Patent publication US10479782B2, “Forms of lumacaftor and processes for the preparation thereof” (Mylan Laboratories LImited, priority 2015, dated 2019)

How the values were obtained:
[1] = Storage stability, chemical (purity by HPLC analysis); format: physicochemical
Method: Thus, in addition to PXRD analyses, HPLC analyses were also performed. HPLC separations may be performed on an HPLC column and detector system, such as an Kromasil 100 C18 column (150×4.6 mm, 3.5 μm) or its equivalent using a UV detector set at 220 nm with a column oven temperature of about 30° C. A flow rate of 1.0 mL/min with an injection volume of 10 μL may be used, with a run time of approximately 35 minutes.
[…] The samples were tested for stability by PXRD analysis and for purity by HPLC analysis.
(§1) As an example, Table 1 below provides data collected on amorphous lumacaftor.
(§2) As another example, Table 2 below provides data collected on crystalline lumacaftor ethyl acetate solvate and the crystalline lumacaftor acetic acid solvate.

[2] = Storage stability, physical (PXRD analysis); format: physicochemical
Method: Amorphous lumacaftor as prepared by methods herein may be characterized as amorphous by powder X-ray diffraction (PXRD). Thus, samples of amorphous lumacaftor were analyzed by X-ray diffraction on a BRUKER D-8 Discover powder diffractometer equipped with a goniometer of θ/2θ configuration and Lynx Eye detector. The Cu-anode X-ray tube was operated at 40 kV and 30 mA. The experiments were conducted over the […] of 2.0°-50.0°, 0.030° step size, and 0.4 seconds step time.
(§3) Another aspect of the present invention provides a crystalline lumacaftor acetic acid solvate. The crystalline lumacaftor acetic acid solvate prepared by methods disclosed herein may be characterized by PXRD. Thus, PXRD analyses of the crystalline lumacaftor acetic acid solvate were carried out on a PANalytical, X'Pert PRO powder diffractometer equipped with goniometer of θ/θ configuration and X'Celerator detector. The Cu-anode X-ray tube was operated at 40 kV and 30 mA. The experiments were conducted over the 2θ range of 2.0°-50.0°, 0.030° step size, and 50 seconds step time.
as §3, with “The” for “Another aspect of the present invention provides a crystalline”, “ethyl acetate” for “acetic acid solvate. The crystalline lumacaftor acetic acid”, “the” for “the crystalline”, “ethyl acetate” for “acetic acid”, “is” for “was”, “0.0300” for “0.030°”
The physical and chemical stabilities of the crystalline lumacaftor acetic acid solvate and the crystalline lumacaftor ethyl acetate solvate were determined by storing samples of each at 40° C./75% relative humidity (RH) and at 25° C./60% RH for six months. The samples were tested for stability by PXRD analysis and for purity by HPLC analysis.
as §1, §2

[3] = storage at 25° C./60% RH, 1 months
[4] = storage at 25° C./60% RH, 2 months
[5] = storage at 25° C./60% RH, 3 months
[6] = storage at 25° C./60% RH, 15 days
[7] = storage at 25° C./60% RH, Initial
[8] = stored for 3 months at 5±3° C. and 25° C./60% relative humidity (RH)
[9] = storage at 25° C./60% RH, 6 months
[10] = storage at 40° C./75% RH, 1 months
[11] = storage at 40° C./75% RH, 2 months
[12] = storage at 40° C./75% RH, 3 months
[13] = storage at 40° C./75% RH, 6 months
[14] = storage at 40° C./75% RH, 15 days
[15] = storage at 40° C./75% RH, Initial
[16] = stored for 6 months at 25° C./60% and 40° C./75% relative humidity (RH)

HPLC Purity (%) [1, 3] [%] | HPLC Purity (%) [1, 4] [%] | HPLC Purity (%) [1, 5] [%] | HPLC Purity (%) [1, 6] [%] | HPLC Purity (%) [1, 7] [%] | PXRD [2, 3] | PXRD [2, 4] | PXRD [2, 5] | PXRD [2, 6] | PXRD [2, 7] | HPLC Purity (%) [1, 9] [%] | HPLC Purity (%) [1, 10] [%] | HPLC Purity (%) [1, 11] [%] | HPLC Purity (%) [1, 12] [%] | HPLC Purity (%) [1, 13] [%] | HPLC Purity (%) [1, 14] [%] | HPLC Purity (%) [1, 15] [%] | PXRD [2, 9] | PXRD [2, 10] | Compound | chemical degradation on storage [1, 16] | other results
99.63 | 99.60 | 99.65 | 99.67 | 99.65 | Stable | Stable | Stable | Stable | Amorphous | – | – | – | – | – | – | – | – | – | Cc1ccc(NC(=O)C2(c3ccc4c(c3)OC(F)(F)O4)CC2)nc1-c1cccc(C(=O)O)c1 [Amorphous lumacaftor, 3-(6-(1-(2,2-difluorobenzo[d][1,3]dioxol-5-yl)cyclopropanecarboxamido)-3-methylpyridin-2-yl)benzoic acid] | – | HPLC Purity (%) ([1]; storage at 5 ± 3° C., 1 months): 99.61%; HPLC Purity (%) ([1]; storage at 5 ± 3° C., 2 months): 99.63%; HPLC Purity (%) ([1]; storage at 5 ± 3° C., 3 months): 99.64%; HPLC Purity (%) ([1]; storage at 5 ± 3° C., 15 days): 99.67%; HPLC Purity (%) ([1]; storage at 5 ± 3° C., Initial): 99.65%; chemical degradation on storage [1, 8]: no significant chemical degradation; PXRD ([2]; storage at 5 ± 3° C., 1 months): Stable; PXRD ([2]; storage at 5 ± 3° C., 2 months): Stable; PXRD ([2]; storage at 5 ± 3° C., 3 months): Stable; PXRD ([2]; storage at 5 ± 3° C., 15 days): Stable; PXRD ([2]; storage at 5 ± 3° C., Initial): Amorphous; change in PXRD pattern on storage [2, 8]: no change in PXRD pattern
99.92 | 99.92 | 99.89 | 99.92 | 99.84 | Stable | Stable | Stable | Stable | Crystalline | 99.93 | 99.93 | 99.93 | 99.89 | 99.92 | 99.92 | 99.84 | Stable | Stable | Cc1ccc(NC(=O)C2(c3ccc4c(c3)OC(F)(F)O4)CC2)nc1-c1cccc(C(=O)O)c1 [Lumacaftor acetic acid solvate, 3-(6-(1-(2,2-difluorobenzo[d][1,3]dioxol-5-yl)cyclopropanecarboxamido)-3-methylpyridin-2-yl)benzoic acid] | neither the lumacaftor ethyl acetate solvate nor the lumacaftor acetic acid solvate display any significant chemical degradation | PXRD [2, 11]: Stable; PXRD [2, 12]: Stable; PXRD [2, 13]: Stable; PXRD [2, 14]: Stable; PXRD [2, 15]: Crystalline; change in PXRD pattern on storage [2, 16]: neither the lumacaftor ethyl acetate solvate nor the lumacaftor acetic acid solvate display any significant chemical degradation or any change in PXRD pattern
99.93 | 99.95 | 99.92 | 99.95 | 99.97 | Stable | Stable | Stable | Stable | Crystalline | 99.95 | 99.94 | 99.95 | 99.95 | 99.95 | 99.95 | 99.97 | Stable | Stable | Cc1ccc(NC(=O)C2(c3ccc4c(c3)OC(F)(F)O4)CC2)nc1-c1cccc(C(=O)O)c1 [Lumacaftor ethyl acetate solvate, 3-(6-(1-(2,2-difluorobenzo[d][1,3]dioxol-5-yl)cyclopropanecarboxamido)-3-methylpyridin-2-yl)benzoic acid] | neither the lumacaftor ethyl acetate solvate nor the lumacaftor acetic acid solvate display any significant chemical degradation | PXRD [2, 11]: Stable; PXRD [2, 12]: Stable; PXRD [2, 13]: Stable; PXRD [2, 14]: Stable; PXRD [2, 15]: Crystalline; change in PXRD pattern on storage [2, 16]: neither the lumacaftor ethyl acetate solvate nor the lumacaftor acetic acid solvate display any significant chemical degradation or any change in PXRD pattern
